Values of other authors in patent US10385405B2, “Gene expression markers of tumor resistance to HER2 inhibitor treatment” (GENENTECH, INC., priority 2007, dated 2019).

Tests used:
[1] = tested on: trastuzumab-resistant models harboring PTEN loss or PIK3CA activating mutations
[2] = tested on: incurable, locally advanced, recurrent or metastatic solid tumors

Compound	sensitivity of trastuzumab-resistant models [1]	tolerability ([2]; given intravenously every 3 weeks)	confirmed partial responses ([2]; in vivo)	tumor regression ([2]; patients evaluable for response)	pharmacokinetics, linearity (doses of 2.0-15 mg/kg)	antibodies to pertuzumab (in vivo)
CS(=O)(=O)N1CCN(Cc2cc3nc(-c4cccc5[nH]ncc45)nc(N4CCOCC4)c3s2)CC1 [GDC-0941]	sensitive	–	–	–	–	–
Pertuzumab: HER dimerization inhibitor antibody that inhibits HER2 forming heterodimers with other HER receptors	–	generally well tolerated	Two	3 of 20	linear	not detected
